Patent publication US20250263439A1, “HETERODIMERIC PEPTIDE REAGENTS AND METHODS” (REGENTS OF THE UNIVERSITY OF MICHIGAN, priority 2018, published 2025)
pKd: −log10 of the molar value. “And” between values parts separate entries of the source, which are not always exact repeats. Identical values can stand only once. “Also recorded” adds a separate entry of the source. Bridge positions count the residues as written; N and C are the ends. Square brackets hold non-standard residues; d marks the D form. Ends that are not written are not given here. Peptide text beside a SMILES is read from it. I, II: the chains in the order shown. * marks the point of attachment. X1 = CC1(C)C(=CC=C2CCCC(C=CC3=[N+](CCCCCC(=O)NCCN4C(=O)CC(*)C4=O)c4ccc(S(=O)(=O)O)cc4C3(C)C)=C2Oc2ccc(S(=O)(=O)O)cc2)N(CCCCS(=O)(=O)[O-])c2ccc(S(=O)(=O)O)cc21; AEEEA = NCCOCCOCCOCC(=O)O

Experiments:
[1] = system: EGFR and ErbB2 mediated signaling; experiment: Effect on downstream cell signaling in SKBr3 cells (Western blot); format: cell-based, human
Procedure: The effect of heterodimer binding on downstream signaling was evaluated in SKBr3 cells. SKBr3 cells were seeded in 6-well flat-bottom plates. […] EGF (#E9644, Sigma) was reconstituted to 1 mg/mL using 10 mM acetic acid, diluted with 0.1% BSA, and added to SKBr3 cells at a concentration of 100 ng/mL. Lapatinib (CDS022971, Sigma) was diluted to 100 nM in DMSO and PBS from 1 mg/mL stock solution, and was added to the cells incubated with heterodimer at concentrations of 1, 5, and 20 μM in separate wells.

Flo1-HER2 cells = experiment: Confocal binding of FITC-labeled candidate peptides to Flo1-HER2 cells; format: cell-based; details: FITC label, among five leading candidates
Procedure: A FITC label was attached to each peptide, and binding to Flo1-HER2 and QhTERT cells (control) was imaged using confocal microscopy. […] From the model, this peptide was determined to bind to HER2 domain 3. The peptide was then labeled for deep tissue imaging with a Cy5.5 fluorophore via a GGGSK (SEQ ID NO: 3) linker on the C-terminus, hereafter KSP*-Cy5.5. Cy5.5 was chosen for high quantum yield and photostability. The linker prevents steric hindrance by spatially separating the fluorophore from the peptide. A scrambled sequence PPSNFKR (SEQ ID NO: 4) was developed for use as control by altering the conformationally rigid spacer PNP and moving both hydrophobic and hydrophilic amino acids at the C-terminus. This control peptide also was linked to Cy5.5 via GGGSK (SEQ ID NO: 3), hereafter PPS*-Cy5.5. […] The fluorescence emission peak occurs at 708 nm in the NIR spectrum.

[2] = Marshall et al.; cited from earlier work
OE33 cells [3] = experiment: Apparent association time constant by flow cytometry with OE33 cells; format: binding, human; details: for apparent association time constant Ka: flow cytometry, 1 μM, 4° C.; for apparent association time constant (time): value in brackets after Ka
Procedure: The apparent association time constant (Ka) was measured to assess binding kinetics to OE33 cells. OE33 cells were grown to about 80% confluence in 10 cm dishes, and cells were then detached with PBS-based cell dissociation buffer (Invitrogen). About 10^5 cells were incubated with 1 μM of the heterodimer at 4° C. for different time periods ranging from […]. The cells were centrifuged, washed with cold PBS, and fixed with 4% PFA. Flow cytometry was performed, and the median fluorescence intensity (y) was ratioed with that of OE33 cells without addition of peptide at time points (t) using Flowjo software. The rate constant K was calculated by fitting the data to the first-order kinetics model, y(t)=Imax[1−exp^(−kt)], where Imax=maximum value, using Prism 5.0 software.

OE33 cells [4] = experiment: Apparent dissociation constant by flow cytometry with OE33 cells; format: binding, human; details: flow cytometry, 4° C.
Procedure: The apparent dissociation constant (Kd) was measured to assess binding affinity of the heterodimer to OE33 cells. The heterodimer was serially diluted in PBS at concentrations of about 0, 10, 25, 50, 100, and 200 nM with about […] at 4° C. for one hour and washed with cold PBS. The mean fluorescence intensities were measured with flow cytometry (BD LSRII, BD Biosciences). The equilibrium dissociation constant Kd 1/Ka was calculated with a least-squares fit of the data to the nonlinear equation I=(I0+ImaxKa[X])/(I0+Ka[X]). I0 and Imax are the initial and maximum fluorescence intensities, corresponding to no peptide and at saturation, respectively, and [X] represents the concentration of bound peptide. Prism 5.0 software (Graphpad Inc.) was used to calculate Kd and Ka.

[5] = system: human OE33 xenograft tumors; experiment: In vivo fluorescence (FL) imaging of OE33 xenograft tumors (IRDye800); design: species or system mice; details: for Fluorescence T/B ratio, mean (±SD): 2 hours post-injection, n=6 mice
Procedure: (§1) FL and PA images were collected following systemic administration of QRH*-KSP*-E3-IRDye800 and (GGGAGGG (SEQ ID NO: 28))2-E3-IRDye800 (control) in human OE33 xenograft tumors to characterize pharmacokinetics. […] The mean intensity for either modality regressed to baseline at ˜24 hours post-injection.

[6] = system: OE19, OE21, OE33 and SKBr3 cancer cells; experiment: Cytotoxicity of IRDye800 heterodimer in panel of human cancer cells; format: cell-based; details: 48 hours, concentrations up to 500 μg/mL
SKBr3 cells = experiment: Confocal cell surface binding of IRDye800 heterodimer to cell panel; format: cell-based, human
Procedure: Confocal microscopy was performed to validate specific heterodimer binding. […] AF568-labeled anti-EGFR and AF488-labeled anti-HER2 antibodies were used as positive controls to confirm EGFR and HER2 expression by the cell panel. Heterodimer and antibody binding to the surface (arrows) of SKBr3 cells co-localize, and a Pearson's coefficient of ρ=0.58 and 0.65 was measured for EGFR and HER2, respectively, on merged images, FIG. 23A-F.

[7] = FL intensity in serum of tumor bearing mice over 48 hours; format: in vivo; details: mouse, 45 nmol
Procedure: FIG. 19A) White light and FIG. 19B) FL images (λex=800 nm) are shown of heterodimer distribution in major organs at 2 hours post-injection. FIG. 19C) Mean (±SD) fluorescence intensity for heterodimer and control peptide was shown from n=6 mice each. […] FIG. 19D) FL intensity from serum of tumor bearing mice injected with heterodimer (300 μM, 150 μL PBS, n=6) is shown over 48 hours. Blood prior to heterodimer injection is shown as control.
(§2) Tumor-bearing mice were sacrificed at 2 hours post-injection of heterodimer or control peptide.

[8] = system: human OE33 xenograft tumors; experiment: Biodistribution of IRDye800 heterodimer in major organs; design: species or system mice; details: mouse, in vivo
Procedure: as §2

[9] = system: OE33 human xenograft tumor; experiment: Immunofluorescence of OE33 xenograft tumor sections ex vivo
Procedure: Immunofluorescence was performed to validate target expression in sections of OE33 human xenograft tumor ex vivo.

[10] = system: human OE33 xenograft tumors; experiment: In vivo photoacoustic (PA) imaging of OE33 xenograft tumors (IRDye800); design: species or system mice; details: for Photoacoustic T/B ratio, mean: 2 hours post-injection
Procedure: as §1
Dual-modal images were collected at 2 hours following heterodimer injection to assess imaging depth. […] An ultrasound image confirmed tumor structure, FIG. 20D.

With “EGF (NSDSECPLSHDGYCLHDGVCMYIEALDKYACNCVVGYIGERCQYRDLKWWELR; Epidermal growth factor; UniProt P01133 971-1023, looked up) [an endogenous ligand for EGFR, positive control, reference compound]” as the molecule, how does the “p-AKT and p-ERK” value ([1]; EGF 100 ng/mL, positive control) read?
The value was “strong phosphorylation activity; also recorded: increased expression”.

Which “expression of phosphorylated EGFR / ErbB2 / AKT / ERK” value ([1]; 100 nM lapatinib) does the source give for `CS(=O)(=O)CCNCc1ccc(-c2ccc3ncnc(Nc4ccc(OCc5cccc(F)c5)c(Cl)c4)c3c2)o1` [lapatinib, reference compound] here?
Its value is “reduced expression”.

With KSPNPRF (also: FITC label) as the molecule, how does the “mean fluorescence intensity with binding to Flo1-HER2” value (Flo1-HER2 cells) read?
The value was “highest mean fluorescence intensity”.

For IRDye800, which safety in animals [2] is on record?
The safety in animals was “safe”.

What does the source list for “KSP*-GGGSK-Cy5.5 (KSPNPRFGGGSK-NH2; also: Cy5.5 label on C-terminal Lys side chain) [KSP*-Cy5.5]”?
apparent association time constant Ka (OE33 cells [3]): 0.35 min⁻¹; apparent association time constant (time) (OE33 cells [3]): 2.8 min and 2.9 min; pKd (OE33 cells [4]): 7.27

With `CC1(C)C(=CC=C2CCCC(C=CC3=[N+](CCCCCC(=O)NCCN4C(=O)CC(SC[C@H](NC(=O)[C@H](CCCCNC(=O)COCCOCCOCCNC(=O)[C@H](CCC(=O)O)NC(=O)[C@H](CCCNC(=N)N)NC(=O)[C@@H]5CCCN5C(=O)[C@H](CCCCN)NC(=O)[C@H](Cc5c[nH]cn5)NC(=O)[C@H](CCCNC(=N)N)NC(=O)[C@@H](N)CCC(N)=O)NC(=O)COCCOCCOCCNC(=O)[C@H](Cc5ccccc5)NC(=O)[C@H](CCCNC(=N)N)NC(=O)[C@@H]5CCCN5C(=O)[C@H](CC(N)=O)NC(=O)[C@@H]5CCCN5C(=O)[C@H](CO)NC(=O)[C@@H](N)CCCCN)C(N)=O)C4=O)c4ccc(S(=O)(=O)O)cc4C3(C)C)=C2Oc2ccc(S(=O)(=O)O)cc2)N(CCCCS(=O)(=O)[O-])c2ccc(S(=O)(=O)O)cc21` (stereo partly drawn) [QRH*-KSP*-E3-IRDye800] (I: H-KSPNPRF[AEEEA]KC(X1)-NH2 / II: H-QRHKPRE[AEEEA]; amide I:9-II:C) as the molecule, how does the “Fluorescence T/B ratio, mean (±SD)” value [5] read?
The value was 3.89±0.94.

What about the “time of peak FL T/B ratio / intensity post-injection” value ([5]; intravenous) of the same molecule?
Its value is 2 h.

What about the “mean FL T/B ratio versus control peptide or PBS” value ([5]; mouse, in vivo) of the same molecule?
The value was “significantly greater”.

And the “time of regression of FL intensity to baseline / clearance” value ([5]; post-injection)?
The value was ~24 h.

And the cytotoxicity [6]?
The cytotoxicity was “Negligible cytotoxicity; also recorded: No cytotoxicity”.

And the “binding to surface of SKBr3 cells” value (SKBr3 cells; confocal microscopy)?
Its value is “Strong fluorescence intensity; also recorded: Strong binding”.

What about the “mean fluorescence intensity SKBr3 versus OE21, OE19, and QhTERT cells” value (SKBr3 cells; paired t-test) of the same molecule?
The value was “significantly greater”.

And the half-life [7]?
The half-life was ~3 h.

What about the “tumor uptake (biodistribution)” value [8] of the same molecule?
The value was “high tumor uptake”.

And the T/B ratio ([9]; OE33 xenograft tumor sections, 3 boxes of 20×20 μm2)?
The T/B ratio was 5.0±0.8.

What about the “binding to surface of OE33 xenograft tumor cells” value ([9]; immunofluorescence of sections) of the same molecule?
Its value is “strong binding”.

What about the “Photoacoustic T/B ratio, mean” value [10] of the same molecule?
Its value is 2.44±0.36.

What about the “time of peak PA T/B ratio / intensity post-injection” value ([10]; intravenous) of the same molecule?
The value was 2 h.

What about the “mean PA T/B ratio versus control peptide or PBS” value ([10]; mouse, in vivo) of the same molecule?
The value was “significantly greater”.

What about the “time of regression of PA intensity to baseline / clearance” value ([10]; post-injection) of the same molecule?
Its value is ~24 h.

For “(GGGAGGG)2-E3-IRDye800: control peptide for the IRDye800 heterodimer (also: dimer via E3 linker, IRDye800 label) [reference compound]”, which “Fluorescence T/B ratio, mean (±SD)” value [5] is on record?
Its value is 3.89±0.94.

What about the “Photoacoustic T/B ratio, mean” value [10] of the same molecule?
Its value is 1.44±0.21.

For “QRH*-GGGSK-Cy5.5 (QRHKPREGGGSK-NH2; also: Cy5.5 label on C-terminal Lys side chain) [QRH*-Cy5.5]”, which “apparent association time constant Ka” value (OE33 cells [3]) is on record?
Its value is 0.21 min⁻¹.

And the “apparent association time constant (time)” value (OE33 cells [3])?
The value was 4.7 min and 4.8 min.

What about the pKd (OE33 cells [4]) of the same molecule?
The pKd was 7.01.
